Experiments:
[1] = biological target: T1, Mitogen-activated protein kinase 14 (Homo sapiens, UniProt Q16539); experiment: Fluorescence-Based Competition Assay; details: pH 7
From the text: The competitive binding between test compounds and a fluorescence p38 alpha inhibitor, SK&F 86002.

[2] = biological target: T1, Mitogen-activated protein kinase 14; experiment: Kinase Activity Assay; details: pH 7
Procedure: In vitro kinase activity and selectivity was determined by using SelectScreen kinase profiling Z'-LYTE assay from Invitrogen.

T1 sequence (Q16539 whole entry): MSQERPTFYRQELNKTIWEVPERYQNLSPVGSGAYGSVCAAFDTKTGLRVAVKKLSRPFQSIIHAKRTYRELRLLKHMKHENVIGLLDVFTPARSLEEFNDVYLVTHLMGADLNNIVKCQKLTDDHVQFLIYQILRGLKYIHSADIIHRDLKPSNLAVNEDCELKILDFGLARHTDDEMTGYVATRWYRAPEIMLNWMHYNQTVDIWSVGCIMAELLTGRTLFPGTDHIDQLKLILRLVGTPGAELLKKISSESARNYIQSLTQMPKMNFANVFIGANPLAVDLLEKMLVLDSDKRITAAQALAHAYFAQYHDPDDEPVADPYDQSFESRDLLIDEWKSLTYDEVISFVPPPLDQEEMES

IC50 [1]: 5610 nM
IC50 [2]: 710 nM
Kd [2]: 760 nM
SMILES: C=C1SN(C)c2ccc(S(=O)(=O)Nc3ccccc3N3CCCCC3)cc21 [BI-12H11]
